In data set [1] the test system is wild-type (AB) zebrafish (Danio rerio). The data set is described as follows: animal or person. It counts as in vivo. The settings on record: for MEC: locomotor behaviors. How it is done:
(§1) Larval zebrafish were produced in the University of Toledo zebrafish core facility and housed in an incubator maintained at 28 °C on a 14:10 h cycle. Fish were acclimated to the testing room conditions the evening prior to testing. All testing took place during the 14 h light cycle after the lights had been on for at least 2 h.
The movement of larval zebrafish was monitored with the Noldus behavior recording system (Noldus Information Technology, Leesburg VA) and quantified using EthoVision® XT 15 software (Noldus Information Technology, Leesburg VA). Five-dpf zebrafish larvae were exposed to a range of nonlethal concentrations of compounds in a 24-well plate with appropriate controls. The plate was immediately placed in the incubator for a 30-min exposure period. After 30 min, the plate was transferred to the Noldus system and swimming behavior was recorded in 100% light for 30 min to measure spontaneous swimming behavior. The light was switched off for 10 min (dark period) and then switched on for 10 min (light period), which was then repeated for two additional cycles. In total, the larvae were exposed to three cycles of alternating 10 min dark and light periods (100% darkness-to-100% light). Each drug challenge was conducted on three separate plates with n = 6 larvae/dose/plate.
Absolute turn angle (TA) and angular velocity provided measures of the extent of turning behavior, while the intra-individual variance of turn angle quantified how consistently (low variance) or inconsistently (high variance) fish turned. A lowered intra-individual variance of turning reflected repeatedly performing the same turning behavior, a stereotypy.
All data for exposure and the behavioral end points were analyzed by one-way ANOVA (factor: drug concentration) followed by a Dunnett’s multiple comparisons test for post hoc significance between drug concentration and control group. Statistically significant differences are noted as follows; *p < 0.05; **p < 0.01; ***p < 0.001.

The test system is the same in data set [2]. Kind of data set: Maximum tolerated concentration (MTC) determination in larval zebrafish. To be noted: for MTC (maximum tolerated concentration): after 24 h exposure, 5 dpf larvae. It counts as in vivo. How it is done:
as §1
Determination of maximum tolerated concentration (adapted from Berghmans)[52] was completed by placing 5 days post fertilization (dpf) wild-type zebrafish larvae in a 24 well plate at 6 fish per well, and one compound concentration per well. […] Death was determined by the absence of heartbeat. Additional endpoints were used to assess toxicity at non-lethal concentrations such as startle capacity (poke stimulus), abnormalities in swimming behavior (loss of dorsoventral balance), and gross morphological deformities (bent body). […] The MTC determination was used to select three doses of each compound (low, medium, high dose) to be used in behavioral assays.

The target in data set [3] is T1, human M1 muscarinic receptors (Homo sapiens, UniProt P11229).
T1 sequence (P11229 1-460): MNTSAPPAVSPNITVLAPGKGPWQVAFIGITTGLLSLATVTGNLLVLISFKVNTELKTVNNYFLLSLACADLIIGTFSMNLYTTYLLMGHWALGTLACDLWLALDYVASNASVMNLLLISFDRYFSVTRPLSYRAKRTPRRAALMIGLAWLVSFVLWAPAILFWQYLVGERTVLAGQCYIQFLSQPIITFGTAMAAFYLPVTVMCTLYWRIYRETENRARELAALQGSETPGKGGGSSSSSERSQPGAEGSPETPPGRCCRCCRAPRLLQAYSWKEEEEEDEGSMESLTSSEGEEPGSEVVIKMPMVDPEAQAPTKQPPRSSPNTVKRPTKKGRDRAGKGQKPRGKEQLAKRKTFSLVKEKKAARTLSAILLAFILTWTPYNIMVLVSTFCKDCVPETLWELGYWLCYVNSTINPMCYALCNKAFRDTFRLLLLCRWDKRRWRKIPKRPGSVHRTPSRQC
The data set is described as follows: [3H]-arachidonic acid release in CHO cells expressing M1 receptors, with and without ACh (single modulator concentration, four-parameter curves). The data set is classed as cell-based. To be noted: for 0.1 µM ACh: response with modulator present divided by response to ACh alone / 100 µM ACh: response with modulator present divided by response to ACh alone / No ACh: agonist effect of the allosteric ligand by itself, fraction of the maximal response that could be elicited by ACh: modulator 10 µM, CHO-hM1, mean ± s.e.m.; for No ACh: agonist effect of the allosteric ligand by itself, fraction of the maximal response that could be elicited by ACh: at least 4 determinations. Also noted: expressed in transfected cells; host or cells: CHO cells stably transfected with hM1, obtained from Mark Brann's laboratory (NIH). As to the method: CHO cells expressing human M1 muscarinic receptors were cultured at 37 °C in a 5% CO2 atmosphere in F12 medium supplemented with 5% fetal bovine serum, 100 units/ml penicillin, and 100 µg/ml streptomycin. These cells were obtained from Mark Brann’s laboratory when they were at NIH and have been in use by us and others for many years.
Measurement of [^3H]AA release was performed as described in Stahl and Ellis[24]. Stably transfected CHO-hM1 cells were seeded on 24-well plates (Greiner Bio-One GmbH, Frickenhausen, Germany) at a density of 5.0 × 10^4 cells/well in 0.5 ml of F-12 medium. Cells were incubated until they attached (approximately 3 h), followed by the addition of [^3H]AA to a final concentration of 0.05 μCi of [^3H]AA per well. The cells were then grown for 16 to 20 h before the assay was performed. [^3H]AA release was measured in Eagle’s basal medium with 20 mM HEPES and 2 mg/ml fatty acid-free bovine serum albumin (EM-BSA). Cells were rinsed twice with EM-BSA, followed by the addition of EM-BSA media containing experimental agents and incubated for 1 h at 37 °C. The assay was terminated by aspiration of the media, and the amount of [^3H]AA released was determined by liquid scintillation counting (Beckman-Coulter LS6500).
Where indicated (Fig. 2), cells were pretreated with POB to reduce the number of available receptors per cell. Stock POB was made up at 10 mM in ethanol and stored at −20C. Each well was pretreated with 0.5 ml of the appropriate concentration in PBS with 1 mM CaCl2 and 1 mM MgCl2 (PBS+ +) for 30 min at 37 °C, followed by 5 washes with PBS+ + . After pretreatment, the normal protocol follows as above.
Tabulated [^3H]AA release data are represented as a fraction of maximal release elicited by ACh or as the fraction of release elicited by the relevant concentration of ACh alone, as indicated. Dose-response curves were normalized to the maximal response of ACh without allosteric ligand. Where indicated, response curves were analyzed using the empirical four-parameter equation: Y=Top+Bottom-Top/1+X/C50^n where X is the concentration of the ligand used, Y is the amount of response, C50 is the concentration of the ligand that produces 50% of the maximal effect, Top and Bottom are the top and bottom plateaus of the curve, and n is related to the Hill slope for the curve. Where indicated, families of response curves were analyzed according to an allosteric operational model[50],[51]: Y=EM[τAA(KB+αβB)+τBBKA]/[τAA(KB+αβB)+τBBKA+AKB+KAKB+KAB+αAB] where EM is the maximal response; A is the concentration of ACh; B is the concentration of the allosteric ligand; τA and τB represent the operational efficacies of A and B, respectively; KA and KB are the equilibrium dissociation constants of A and B; and α and β represent the cooperativities between A and B in terms of binding and activation, respectively. Curve-fitting was carried out with GraphPad Prism, version 5.0 or 6.0 (San Diego CA).

Data set [4] concerns wild-type (AB) zebrafish (Danio rerio). It counts as in vivo. The settings on record: compound at 10 µM relative to controls; mean ± s.e.m., N = 12.
The mark [5] stands for this setting: modulators at 10 µM (amiodarone 30 µM).
Setting [6] is: compound at 10 µM relative to controls, mean ± s.e.m., N = 12.

Entries after “also recorded” stand apart in the source; their conditions may differ. Like-named read-outs stand apart in the source and are kept apart here. Marks after values point to notes of the source that are not given here.

Compound `CCCCc1oc2ccccc2c1C(=O)c1ccc(O)cc1` [Compound 4, reference compound] had an MEC in data set [1] greater than 0.3 µM. Also, the “MTC (maximum tolerated concentration)” value in data set [2] was 0.3 µM. In data set [3], the “0.1 µM ACh: response with modulator present divided by response to ACh alone” value is listed as 0.62 ± 0.07; the “100 µM ACh: response with modulator present divided by response to ACh alone” value turned out to be 0.81 ± 0.06; the “No ACh: agonist effect of the allosteric ligand by itself, fraction of the maximal response that could be elicited by ACh” value amounted to 0.04 ± 0.01. In addition, the “Effect on M1 receptor activity and ACh response, in words” value in data set [3] (setting [5]) was “suppressed the maximal ACh response”.

For the compound `COc1ccc(Cn2cc(C(=O)O)c(=O)c3ccccc32)cc1` [BQCA, reference compound], the “Effect on locomotor activity and turning behaviors, in words” value in data set [1] (30 min spontaneous swimming period) is recorded as “decreased overall locomotor activity; also recorded: increased angular velocity”. Further, the response vs control in vivo at 10 µM in data set [1] (Danio rerio, read-out: Distance moved) came out at 72 ± 10%. The compound also yielded an MEC in data set [1] (abbreviation not defined in the paper) of 3 µM. Moreover, in data set [1] (setting [6]), the Angular velocity was 141.8 ± 14.9* % and the Variance turn angle is reported as 119.6 ± 7.0* %. In addition, in data set [3], the “Effect on M1 receptor activity and ACh response, in words” value is given as “enhanced potency without appreciable effect on maximal response”; the “No ACh: agonist effect of the allosteric ligand by itself, fraction of the maximal response that could be elicited by ACh” value was found to be 0.02 ± 0.00.

For `CC(COc1ccccc1)N(CCCl)Cc1ccccc1` (stereo not drawn) [POB, phenoxybenzamine, reference compound], in data set [3] (pretreatment of cells with 0.3 µM POB), the “Reduction of receptor number” value is reported as 90%.

VU0238408 [reference compound] yielded an Angular velocity in data set [4] of 180.1 ± 20.3 %. In data set [1], this compound had a Therap. index of 30 and an MEC of 1 µM. Moreover, in data set [1] (setting [6]), the Distance moved was 34.6 ± 4.0*** % and the Variance turn angle was 146.6 ± 12.4*** %. For the same compound, the “MTC (maximum tolerated concentration)” value in data set [2] is recorded as 30 µM.

Compound `CCCCc1oc2ccccc2c1C(=O)c1cc(I)c(O)c(I)c1` [Compound 3, reference compound] returned an MEC in data set [1] greater than 3 µM. Further, the “MTC (maximum tolerated concentration)” value in data set [2] worked out at 3 µM. For the same compound, in data set [3], the “0.1 µM ACh: response with modulator present divided by response to ACh alone” value is on record as 0.63 ± 0.10; the “100 µM ACh: response with modulator present divided by response to ACh alone” value was 0.90 ± 0.07; the “No ACh: agonist effect of the allosteric ligand by itself, fraction of the maximal response that could be elicited by ACh” value was determined as 0.04 ± 0.01. In addition, in data set [3] (setting [5]), the “Effect on M1 receptor activity and ACh response, in words” value was “suppressed the maximal ACh response”.

Take `O=C1C(=O)N(Cc2ccc(Br)cc2)c2ccccc21` [VU0119498, reference compound]: in data set [3], the “0.1 µM ACh: response with modulator present divided by response to ACh alone” value was 1.28 ± 0.12; the “100 µM ACh: response with modulator present divided by response to ACh alone” value is recorded as 1.03 ± 0.05; the “No ACh: agonist effect of the allosteric ligand by itself, fraction of the maximal response that could be elicited by ACh” value is 0.06 ± 0.01.

Compound `CCCCc1oc2ccccc2c1C(=O)c1cc(I)c(OCCN(CC)CC)c(I)c1` [Amiodarone, reference compound] gave an Angular velocity in data set [4] of 83.2 ± 12.0%. In data set [1] (setting [6]), this compound displayed a Distance moved of 85.7 ± 10.2% and a Variance turn angle of 102.2 ± 10.4%. The same compound registered an MEC in data set [1] greater than 10 µM. For the same compound, in data set [2] (24 h exposure), the “Concentration that produced death” value was 100 µM. In addition, the “MTC (maximum tolerated concentration)” value in data set [2] came to 10 µM.

For `COc1cccc(CN2C(=O)C(=O)c3ccccc32)c1` [Compound 8j, 1-(3-methoxybenzyl)indoline-2,3-dione], in data set [3], the “0.1 µM ACh: response with modulator present divided by response to ACh alone” value is recorded as 1.09 ± 0.31; the “100 µM ACh: response with modulator present divided by response to ACh alone” value was determined as 0.96 ± 0.01; the “No ACh: agonist effect of the allosteric ligand by itself, fraction of the maximal response that could be elicited by ACh” value was determined as 0.02 ± 0.02.

On to `CCCCc1oc2ccccc2c1C(=O)c1cc(I)c(OCC[N+](CC)(CC)CC)c(I)c1` [Compound 2, N-ethyl amiodarone, reference compound], for which, in data set [1], the MEC was greater than 1 µM. Besides, in data set [2], the “MTC (maximum tolerated concentration)” value was found to be 1 µM. For the same compound, in data set [3], the “0.1 µM ACh: response with modulator present divided by response to ACh alone” value is given as 0.13 ± 0.04; the “100 µM ACh: response with modulator present divided by response to ACh alone” value was 0.50 ± 0.03; the “No ACh: agonist effect of the allosteric ligand by itself, fraction of the maximal response that could be elicited by ACh” value is listed as 0.04 ± 0.02. Moreover, the “Effect on M1 receptor activity and ACh response, in words” value in data set [3] (setting [5]) was “NAM of mAChR potency and efficacy”.

In data set [1], `CCCCc1oc2ccccc2c1C(=O)c1cc(I)c(OCCNCC)c(I)c1.Cl` [Compound 1, (2-butylbenzofuran-3-yl)(4-(2-(ethylamino)ethoxy)-3,5-diiodophenyl)methanone hydrochloride] came in with a Therap. index of 1 and an MEC of 3 µM. The “MTC (maximum tolerated concentration)” value in data set [2] is given as 3 µM. In addition, in data set [3], the “0.1 µM ACh: response with modulator present divided by response to ACh alone” value is recorded as 1.01 ± 0.11; the “100 µM ACh: response with modulator present divided by response to ACh alone” value was determined as 0.83 ± 0.09; the “No ACh: agonist effect of the allosteric ligand by itself, fraction of the maximal response that could be elicited by ACh” value was determined as 0.18 ± 0.03. Moreover, the “Effect on M1 receptor activity and ACh response, in words” value in data set [3] (setting [5]) is “suppressed the maximal ACh response”.

Source of the values: PMC11213934, “Allosteric modulators of M1 muscarinic receptors enhance acetylcholine efficacy and decrease locomotor activity and turning behaviors in zebrafish” (Scientific Reports, 2024).
